From patent US6362369B1, “Phthalic acid diamide derivatives fluorine-containing aniline compounds as starting material, agricultural and horticultural insecticides, and a method for application of the insecticides” (Nihon Nohyaku Co., Ltd., priority 1997, dated 2002)

Experiments:
Format in all cases: in vivo
[1] = test system: diamondback moth (Plutella xylostella); assay: Insecticidal effect on diamondback moth (Test Example 1); settings: for Insecticidal effect, Test Example 1 / Insecticidal effect (Test Example 1), judged from mortality: diamondback moth; for Insecticidal effect on diamondback moth (Test Example 1), judged grade: mortality judged according to the criterion shown in Test Example 1; for Insecticidal effect (Test Example 1), judged from mortality: judged by the criterion of Test Example 1
How it was run: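 Read-out was mortality from hatched-insect counts taken 6 days after the egg-bearing cabbage seedling was immersed, graded by set criteria. Seedlings were air-dried and kept at 25° C after treatment. Groups of 10 insects, in triplicate.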

[2] = test system: common cutworm (Spodoptera Litura); assay: Insecticidal effect on common cutworm (Test Example 2); settings: 500 ppm, 25° C.; for Insecticidal effect, Test Example 2: cabbage leaf immersed; for Insecticidal effect, Test Example 2 / Insecticidal effect on common cutworm (Test Example 2), judged grade: eight days after inoculation; for Insecticidal effect on common cutworm (Test Example 2), judged grade / Insecticidal effect (Test Example 2), judged from mortality: cabbage leaf dip; for Insecticidal effect on common cutworm (Test Example 2), judged grade: second-instar larvae; for Insecticidal effect (Test Example 2), judged from mortality: 8 days after inoculation
How it was run: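 Air-dried treated material was placed in a closed dish with second-instar larvae and held at 25° C. Dead and live insects were counted eight days after inoculation, and mortality was calculated and scored against a fixed insecticidal-effect criterion. Three replicate groups of 10 insects were used.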

[3] = test system: rice leafroller (Cnaphalocrocis medinalis); assay: Insecticidal effect on rice leafroller (Test Example 3); settings: 500 ppm, 25° C., humidity 70%; for Insecticidal effect, Test Example 3: rice lamina immersed; for Insecticidal effect, Test Example 3 / Insecticidal effect on rice leafroller (Test Example 3), judged grade: four days after inoculation; for Insecticidal effect on rice leafroller (Test Example 3), judged grade / Insecticidal effect (Test Example 3), judged from mortality: rice lamina dip; for Insecticidal effect on rice leafroller (Test Example 3), judged grade: third-instar larvae; for Insecticidal effect (Test Example 3), judged from mortality: 4 days after inoculation
How it was run: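 Groups of 10 third-instar larvae, in triplicate, are placed on air-dried lamina resting on wet filter paper. Incubation runs four days at 25° C with 70% humidity before survivors and dead are tallied.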

[4] = mortality judged by criterion of Test Example 1
[5] = common cutworm second-instar larvae
[6] = rice leafroller third-instar larvae
[7] = judged by the mortality criterion of Test Example 1
[8] = second-instar larvae of common cutworm
[9] = third-instar larvae of rice leafroller

CC(C)NC(=O)c1c(I)cccc1C(=O)Nc1ccc(C(F)(F)C(F)(F)F)cc1Cl [compound 1386]
Insecticidal effect, Test Example 1 [1, 4]: A (100) | Insecticidal effect, Test Example 2 [2, 5]: A (100) | Insecticidal effect, Test Example 3 [3, 6]: A (100)

Cc1cc(C(F)(F)C(F)(F)F)ccc1NC(=O)c1cccc(Cl)c1C(=O)NC(C)CO (stereo not drawn) [compound 1298]
Insecticidal effect, Test Example 1 [1, 4]: A (100) | Insecticidal effect, Test Example 2 [2, 5]: A (100) | Insecticidal effect, Test Example 3 [3, 6]: A (100)

CC(C)NC(=O)c1cccc(F)c1C(=O)Nc1ccc(C(F)(C(F)(F)F)C(F)(F)F)cc1Cl [compound 561]
Insecticidal effect on diamondback moth (Test Example 1), judged grade [1]: A (100) | Insecticidal effect on common cutworm (Test Example 2), judged grade [2]: C (89-80) | Insecticidal effect on rice leafroller (Test Example 3), judged grade [3]: A (100)

CC(C)(C)NC(=O)c1c(I)cccc1C(=O)Nc1ccc2oc(-c3ccc(C(F)(F)F)cc3)nc2c1 [compound 1174]
Insecticidal effect, Test Example 1 [1, 4]: A (100) | Insecticidal effect, Test Example 2 [2, 5]: A (100) | Insecticidal effect, Test Example 3 [3, 6]: A (100)

CC(C)NC(=O)c1cccc(Cl)c1C(=O)Nc1ccc(C(F)(C(F)(F)F)C(F)(F)F)cc1 [compound 198]
Insecticidal effect, Test Example 1 [1, 7]: A (100) | Insecticidal effect, Test Example 2 [2, 8]: C (89-80) | Insecticidal effect, Test Example 3 [3, 9]: A (100)

Cc1cc(Cl)ccc1NC(=O)c1ccc(Br)c(Br)c1C(=O)NC(C)C [compound 339]
Insecticidal effect, Test Example 1 [1, 7]: A (100) | Insecticidal effect, Test Example 2 [2, 8]: B (99-90) | Insecticidal effect, Test Example 3 [3, 9]: A (100)

CC(C)NC(=O)c1cccc(F)c1C(=O)Nc1ccc(OC(F)(F)C(F)OC(F)(F)C(F)(F)C(F)(F)F)cc1 (stereo not drawn) [compound 538]
Insecticidal effect on diamondback moth (Test Example 1), judged grade [1]: A (100) | Insecticidal effect on common cutworm (Test Example 2), judged grade [2]: A (100) | Insecticidal effect on rice leafroller (Test Example 3), judged grade [3]: A (100)

CC(C)NC(=O)c1c(C(=O)Nc2ccc(C(F)(F)C(F)(F)C(F)(F)F)cc2)cccc1[N+](=O)[O-] [compound 609]
Insecticidal effect on diamondback moth (Test Example 1), judged grade [1]: A (100) | Insecticidal effect on common cutworm (Test Example 2), judged grade [2]: B (99-90) | Insecticidal effect on rice leafroller (Test Example 3), judged grade [3]: A (100)

Cc1cc(C(F)(F)C(F)(F)F)ccc1NC(=O)c1cccc(C(F)(F)F)c1C(=O)NC(C)(C)C [compound 1231]
Insecticidal effect, Test Example 1 [1, 4]: A (100) | Insecticidal effect, Test Example 2 [2, 5]: A (100) | Insecticidal effect, Test Example 3 [3, 6]: A (100)

Cc1cc(OC(F)(F)C(F)F)ccc1NC(=O)c1cccc(I)c1C(=O)NC(C)C [compound 390]
Insecticidal effect, Test Example 1 [1, 7]: A (100) | Insecticidal effect, Test Example 2 [2, 8]: A (100) | Insecticidal effect, Test Example 3 [3, 9]: A (100)

Cc1cc(C(F)(F)C(F)(F)F)ccc1NC(=O)c1cccc(Cl)c1C(=O)N[C@H](C)CO [compound 1460]
Insecticidal effect (Test Example 1), judged from mortality [1]: A (100) | Insecticidal effect (Test Example 2), judged from mortality [2, 8]: C (89-80) | Insecticidal effect (Test Example 3), judged from mortality [3, 9]: A (100)

Cc1ccccc1CNC(=O)c1c(I)cccc1C(=O)Nc1ccc(C(F)(F)C(F)(F)F)cc1C [compound 1404]
Insecticidal effect, Test Example 1 [1, 4]: A (100) | Insecticidal effect, Test Example 2 [2, 5]: C (89-80) | Insecticidal effect, Test Example 3 [3, 6]: A (100)

CC(C)NC(=O)c1c(I)cccc1C(=O)Nc1ccc2c(c1Cl)OC(F)C(F)(F)O2 (stereo not drawn) [compound 1733]
Insecticidal effect (Test Example 1), judged from mortality [1]: A (100) | Insecticidal effect (Test Example 2), judged from mortality [2, 8]: A (100) | Insecticidal effect (Test Example 3), judged from mortality [3, 9]: A (100)

CC(C)(C)NC(=O)c1c(F)cccc1C(=O)Nc1ccc(C(F)(F)C(F)(F)C(F)(F)F)cc1F [compound 1509]
Insecticidal effect (Test Example 1), judged from mortality [1]: A (100) | Insecticidal effect (Test Example 2), judged from mortality [2, 8]: C (89-80) | Insecticidal effect (Test Example 3), judged from mortality [3, 9]: A (100)

Cc1cc(Oc2ncc(C(F)(F)F)cc2Cl)ccc1NC(=O)c1ccccc1C(=O)NC(C)C [compound 79]
Insecticidal effect, Test Example 1 [1, 7]: A (100) | Insecticidal effect, Test Example 2 [2, 8]: A (100) | Insecticidal effect, Test Example 3 [3, 9]: D (79-50)

Cc1ccc(NC(=O)c2cccc(Br)c2C(=O)NC(C)C)c(C)c1OC(F)F [compound 284]
Insecticidal effect, Test Example 1 [1, 7]: A (100) | Insecticidal effect, Test Example 2 [2, 8]: A (100) | Insecticidal effect, Test Example 3 [3, 9]: A (100)

Cc1cc(SC(F)(F)C(F)(F)F)ccc1NC(=O)c1c(F)cccc1C(=O)NC(C)C [compound 906]
Insecticidal effect on diamondback moth (Test Example 1), judged grade [1]: A (100) | Insecticidal effect on common cutworm (Test Example 2), judged grade [2]: D (79-50) | Insecticidal effect on rice leafroller (Test Example 3), judged grade [3]: A (100)

Cc1cc(C(F)(F)C(F)(F)C(F)(F)F)ccc1NC(=O)c1cc(F)ccc1C(=O)NC(C)C [compound 533]
Insecticidal effect on diamondback moth (Test Example 1), judged grade [1]: A (100) | Insecticidal effect on common cutworm (Test Example 2), judged grade [2]: A (100) | Insecticidal effect on rice leafroller (Test Example 3), judged grade [3]: A (100)

CC(C)NC(=O)c1c(Cl)cccc1C(=O)Nc1ccc(C(F)(F)F)cc1Cl [compound 125]
Insecticidal effect, Test Example 1 [1, 7]: A (100) | Insecticidal effect, Test Example 2 [2, 8]: B (99-90) | Insecticidal effect, Test Example 3 [3, 9]: A (100)

CCNC(=O)c1c(C(=O)Nc2ccc(OC(F)F)cc2C)cccc1[N+](=O)[O-] [compound 11]
Insecticidal effect, Test Example 1 [1, 7]: A (100) | Insecticidal effect, Test Example 2 [2, 8]: C (89-80) | Insecticidal effect, Test Example 3 [3, 9]: C (89-80)

Cc1cc(C(F)(F)C(F)(F)F)ccc1NC(=O)c1cccc(Cl)c1C(=O)NC(C)(C)C [compound 932]
Insecticidal effect on diamondback moth (Test Example 1), judged grade [1]: A (100) | Insecticidal effect on common cutworm (Test Example 2), judged grade [2]: A (100) | Insecticidal effect on rice leafroller (Test Example 3), judged grade [3]: A (100)

CC(C)NC(=O)c1c(C(=O)Nc2ccc(C(F)(C(F)(F)F)C(F)(F)F)cc2Cl)cccc1[N+](=O)[O-] [compound 703]
Insecticidal effect on diamondback moth (Test Example 1), judged grade [1]: A (100) | Insecticidal effect on common cutworm (Test Example 2), judged grade [2]: A (100) | Insecticidal effect on rice leafroller (Test Example 3), judged grade [3]: A (100)

Cc1cc(C(F)(F)C(F)(F)F)c(Cl)cc1NC(=O)c1cccc(I)c1C(=O)NC(C)C [compound 1653]
Insecticidal effect (Test Example 1), judged from mortality [1]: A (100) | Insecticidal effect (Test Example 2), judged from mortality [2, 8]: A (100) | Insecticidal effect (Test Example 3), judged from mortality [3, 9]: A (100)

Cc1cc(OC(F)(F)C(F)C(F)(F)F)ccc1NC(=O)c1cccc(Cl)c1C(=O)NC(C)C (stereo not drawn) [compound 146]
Insecticidal effect, Test Example 1 [1, 7]: A (100) | Insecticidal effect, Test Example 2 [2, 8]: A (100) | Insecticidal effect, Test Example 3 [3, 9]: A (100)

CC(C)NC(=O)c1c(C(=O)Nc2ccc(Cl)c(Cl)c2)cccc1[N+](=O)[O-] [compound 636]
Insecticidal effect on diamondback moth (Test Example 1), judged grade [1]: A (100) | Insecticidal effect on common cutworm (Test Example 2), judged grade [2]: D (79-50) | Insecticidal effect on rice leafroller (Test Example 3), judged grade [3]: A (100)

CC(C)NC(=O)c1c(I)cccc1C(=O)Nc1ccc2c(c1)OC(F)(F)C(F)O2 (stereo not drawn) [compound 1164]
Insecticidal effect, Test Example 1 [1, 4]: A (100) | Insecticidal effect, Test Example 2 [2, 5]: A (100) | Insecticidal effect, Test Example 3 [3, 6]: A (100)

Cc1cc(C(F)(F)C(F)(F)C(F)(F)C(F)(F)F)ccc1NC(=O)c1cccc(Br)c1C(=O)NC(C)C [Compound No. 281, 3-bromo-N^1-(4-nonafluorobutyl-2-methylphenyl)-N^2-isopropyl-phthalic acid diamide]
Insecticidal effect, Test Example 1 [1, 7]: A (100) | Insecticidal effect, Test Example 2 [2, 8]: A (100) | Insecticidal effect, Test Example 3 [3, 9]: A (100)

Cc1c(Cl)cccc1NC(=O)c1cccc(Cl)c1C(=O)NC(C)C [compound 118]
Insecticidal effect, Test Example 1 [1, 7]: A (100) | Insecticidal effect, Test Example 2 [2, 8]: A (100) | Insecticidal effect, Test Example 3 [3, 9]: A (100)

Cc1cc(OC(F)(F)C(F)(F)Br)ccc1NC(=O)c1cccc(I)c1C(=O)NC(C)C [compound 380]
Insecticidal effect, Test Example 1 [1, 7]: A (100) | Insecticidal effect, Test Example 2 [2, 8]: A (100) | Insecticidal effect, Test Example 3 [3, 9]: A (100)

Cc1cc(C(F)(F)F)ccc1NC(=O)c1cccc(Cl)c1C(=O)NC(C)C [compound 127]
Insecticidal effect, Test Example 1 [1, 7]: A (100) | Insecticidal effect, Test Example 2 [2, 8]: A (100) | Insecticidal effect, Test Example 3 [3, 9]: A (100)

Cc1cc(C(F)(F)C(F)(F)F)ccc1NC(=O)c1c(Cl)cccc1C(=O)NC(C)C [compound 223]
Insecticidal effect, Test Example 1 [1, 7]: A (100) | Insecticidal effect, Test Example 2 [2, 8]: A (100) | Insecticidal effect, Test Example 3 [3, 9]: A (100)

CC(C)(C)NC(=O)c1c(Cl)cccc1C(=O)Nc1ccc(OC(F)(F)F)cc1Cl [compound 1022]
Insecticidal effect, Test Example 1 [1, 4]: A (100) | Insecticidal effect, Test Example 2 [2, 5]: A (100) | Insecticidal effect, Test Example 3 [3, 6]: A (100)

Cc1cc(OC(F)F)ccc1NC(=O)c1ccccc1C(=O)NC(C)C [compound 58]
Insecticidal effect, Test Example 1 [1, 7]: A (100) | Insecticidal effect, Test Example 2 [2, 8]: A (100) | Insecticidal effect, Test Example 3 [3, 9]: A (100)

Cc1cc(C(F)(F)C(F)(F)F)ccc1NC(=O)c1cccc(Cl)c1C(=O)N[C@@H](C)CO [compound 1445]
Insecticidal effect (Test Example 1), judged from mortality [1]: A (100) | Insecticidal effect (Test Example 2), judged from mortality [2, 8]: A (100) | Insecticidal effect (Test Example 3), judged from mortality [3, 9]: A (100)

Cc1cc(C(F)(F)C(F)(F)F)ccc1NC(=O)c1cccc(I)c1C(=O)NCc1ccccc1 [compound 1400]
Insecticidal effect, Test Example 1 [1, 4]: A (100) | Insecticidal effect, Test Example 2 [2, 5]: A (100) | Insecticidal effect, Test Example 3 [3, 6]: A (100)
